Test results published in patent publication US6534325B1, “Immunoassay for the detection of amphetamines, methamphetamines and methylenedioxy designer amphetamines” (priority 2000, dated 2003).
Like-named read-outs stand apart in the source and are kept apart here.

Legend:
[1] = tested on: amphetamine antibody and methamphetamine antibody; details: cutoff 500 ng/ml, currently marketed assay, cited from earlier work
[2] = tested on: amphetamine antibody and methamphetamine antibody; details: cutoff 500 ng/ml, currently marketed assay, cited from earlier work; remark: listed apart in the source
[3] = tested on: amphetamine antibody and methamphetamine antibody; details: cutoff 1000 ng/ml, currently marketed assay, cited from earlier work
[4] = tested on: amphetamine antibody and methamphetamine antibody; details: cutoff 1000 ng/ml, currently marketed assay, cited from earlier work; remark: listed apart in the source
[5] = tested on: amphetamine and methamphetamine monoclonal antibodies (mouse); test: Roche Hitachi AMP/MDMA immunoassay with MDA calibrator, cross-reactivity; details: cutoff 300 ng/ml, HITACHI 717 analyzer
[6] = tested on: amphetamine and methamphetamine monoclonal antibodies (mouse); test: Roche Hitachi AMP/MDMA immunoassay (method of the invention, MDMA calibrator), cross-reactivity; details: cutoff 300 ng/ml, MDMA calibrator, HITACHI 917 analyzer

| Compound | Cross-reactivity, Roche Hitachi AMP/MDMA, MDA used as calibrator [5] | Cross-reactivity, Roche Hitachi AMP [1] | Cross-reactivity, Roche Integra AMPSC [2] | Cross-reactivity, Abbott TDX AMP/methAMP [3] | Cross-reactivity, CEDIA DAU AMP [4] | Cross-reactivity, Roche Hitachi AMP/MDMA [6] | other results |
| --- | --- | --- | --- | --- | --- | --- | --- |
| CC(N)Cc1ccccc1 (stereo not drawn) [l-AMP, amphetamine] | 15.2% |  |  |  |  |  | Cross-reactivity, Roche Hitachi AMP ([1]; listed as 1-AMP): 6%; Cross-reactivity, Roche Integra AMPSC ([2]; listed as 1-AMP): 4.2%; Cross-reactivity, Abbott TDX AMP/methAMP ([3]; listed as 1-AMP): 56.9%; Cross-reactivity, CEDIA DAU AMP ([4]; listed as 1-AMP): 3.0%; Cross-reactivity, Roche Hitachi AMP/MDMA ([6]; listed as 1-AMP): 3.8% |
| CC(N)Cc1ccccc1 (stereo not drawn) [d-AMP, amphetamine] | 319.0% | 100% | 100% | 100% | 101% | 97.0% |  |
| CC(N)C(O)c1ccccc1 (stereo not drawn) [l-PPA, phenylpropanolamine] | 6.2% | 1.5% | 1.1% |  |  | 0.6% |  |
| CC(N)Cc1ccc2c(c1)OCO2 (racemic) [MDA, (±)-3,4-methylenedioxyamphetamine] | 100.0% | 35.5% | 40% | 148% | 1.9% | 25.0% |  |
| CNC(C)Cc1ccc(O)c(OC)c1 (stereo not drawn) [HMMA, 4-hydroxy-3-methoxymethamphetamine] |  |  |  |  |  | <0.3% |  |
| CN[C@@H](C)[C@H](O)c1ccccc1 (racemic) [dl-ephedrine, ephedrine] | 0.34% | <0.1% | <0.1% |  | 0.4% | <0.3% |  |
| CN[C@@H](C)Cc1ccccc1 [d-MAMP, methamphetamine] | 269.0% | 82.2% | 12% | 97.8% | 100% | 300.0% |  |
| CCC(N)Cc1ccc2c(c1)OCO2 (racemic) [BDB, (±)-(3,4-methylenedioxyphenyl)-2-butanamine] |  |  |  |  |  | 4.7% |  |
| CNC(C)Cc1ccc2c(c1)OCO2 (racemic) [MDMA, (±)-3,4 methylenedioxymethamphetamine] | 81.0% | 36% | 79% | 97% | 69% | 100.0% |  |
| CCC(Cc1ccc2c(c1)OCO2)NC (racemic) [MBDB, (±)-N-methyl-1-(3,4-methylenedioxyphenyl)-2-butanamine] |  |  |  |  |  | 70.0% |  |
| CN[C@@H](C)Cc1ccccc1 [l-MAMP, methamphetamine] | 24.7% |  | 12% |  |  |  | Cross-reactivity, Roche Hitachi AMP ([1]; listed as 1-MAMP): 0.8%; Cross-reactivity, Abbott TDX AMP/methAMP ([3]; listed as 1-MAMP): 7.2%; Cross-reactivity, CEDIA DAU AMP ([4]; listed as 1-MAMP): 12%; Cross-reactivity, Roche Hitachi AMP/MDMA ([6]; listed as 1-MAMP): 18% |
